Like-named read-outs stand apart in the source and are kept apart here.
Tests used:
[1] = 90th percentile of the particle size distribution as measured by length, from WO 2009/120167 A1, cited from earlier work
[2] = cited from earlier work; for solubility in H2O: value of the organic solvent incorporated into the crystal structure, not of the crystal form
[3] = gravimetric moisture sorption desorption isotherm; assay type: physicochemical; conditions: 0 to 95% relative humidity, (25.0 ± 0.1) °C
Protocol: Gravimetric moisture sorption desorption isotherm was acquired using a SPS-11 moisture sorption analyzer (MD Messtechnik, Ulm, D). The sample was weighed into an Aluminium sample holder. […] The water content of the samples was determined after the moisture sorption/ desorption experiments with a TGA 7 system (Perkin Elmer, Norwalk, Ct., USA) using the Pyris 2.0 software according to the above described method.

Compound: CCOc1cc([C@@H](CS(C)(=O)=O)N2C(=O)c3cccc(NC(C)=O)c3C2=O)ccc1OC [Form E, N-[2-[(1S)-1-(3-ethoxy-4-methoxyphenyl)-2-(methylsulfonyl)ethyl]-2,3-dihydro-1,3-dioxo-1H-isoindol-4-yl]acetamide]
- D90 ([1]; listed as E): < 18 microm

Compound: ClCCl [methylene chloride]
- solubility in H2O [2]: 1.6 %w/w

Compound: CCOc1cc([C@@H](CS(C)(=O)=O)N2C(=O)c3cccc(NC(C)=O)c3C2=O)ccc1OC [Form D, N-[2-[(1S)-1-(3-ethoxy-4-methoxyphenyl)-2-(methylsulfonyl)ethyl]-2,3-dihydro-1,3-dioxo-1H-isoindol-4-yl]acetamide]
- D90 ([1]; listed as D): < 18 microm

Compound: CCOc1cc([C@@H](CS(C)(=O)=O)N2C(=O)c3cccc(NC(C)=O)c3C2=O)ccc1OC [Form C, N-[2-[(1S)-1-(3-ethoxy-4-methoxyphenyl)-2-(methylsulfonyl)ethyl]-2,3-dihydro-1,3-dioxo-1H-isoindol-4-yl]acetamide]
- D90 ([1]; listed as C): < 12 microm

Compound: N-[2-[(1S)-1-(3-ethoxy-4-methoxyphenyl)-2-(methylsulfonyl)ethyl]-2,3-dihydro-1,3-dioxo-1H-isoindol-4-yl]acetamide ethanol solvate
- hygroscopicity [3]: non-hygroscopic (compounds showing a mass change of less than 2 weight% based on the weight of the compound in the range of from 0 to 95% relative humidity at (25.0 ± 0.1) °C)
- mass change ([3]; based on the weight of the crystalline ethanol solvate): less than 0.5 % w/w

Compound: CCOc1cc([C@@H](CS(C)(=O)=O)N2C(=O)c3cccc(NC(C)=O)c3C2=O)ccc1OC [Form G, N-[2-[(1S)-1-(3-ethoxy-4-methoxyphenyl)-2-(methylsulfonyl)ethyl]-2,3-dihydro-1,3-dioxo-1H-isoindol-4-yl]acetamide]
- D90 ([1]; listed as G): < 18 microm

Compound: CCO [ethanol]
- solubility in water (in words) ([2]; organic solvent): freely soluble in water
- solubility in H2O [2]: 100 %w/w

Compound: CCOC(C)=O [ethyl acetate]
- aqueous solubility / water solubility ([2]; organic solvent): 8.7 % w/w
- solubility in H2O [2]: 8.7 %w/w

Compound: CC#N [acetonitrile]
- solubility in H2O [2]: 100 %w/w

Compound: CC(C)=O [acetone]
- solubility in water (in words) ([2]; organic solvent): freely soluble in water
- solubility in H2O [2]: 100 %w/w

— patent EP3034496A1, “NOVEL SOLVATES OF N-[2-[(1S)-1-(3-ETHOXY-4-METHOXYPHENYL)-2-(METHYLSULFONYL)ETHYL]-2,3-DIHYDRO-1,3-DIOXO-1H-ISOINDOL-4-YL]ACETAMIDE” (LEK Pharmaceuticals d.d., priority 2014, dated 2016)
